Test results from ChEMBL document CHEMBL3774356, “Definitive Metabolite Identification Coupled with Automated Ligand Identification System (ALIS) Technology: A Novel Approach to Uncover Structure-Activity Relationships and Guide Drug Design in a Factor IXa Inhibitor Program” (J Med Chem, 2016).

Legend:
Coagulation factor IX = Coagulation factor IX (Homo sapiens, UniProt P00740); assay: Inhibition of human factor 9a using CH3SO2-DCHG-Gly-Arg-AFC.AcOH as substrate preinubated for 30 mins followed by substrate addition measured after 1 hr by fluorescence assay
Liver microsome [1] = assay: Drug level in Sprague-Dawley rat liver microsomes treated with (R)-2,6-Dichloro-N-(2-(3-fluorophenyl)-2-(2-methyl-1Hbenzo[d]imidazol-5-yl)ethyl)-4-(3-methyl-1H-1,2,4-triazol-1-yl)-benzamide after 4 hrs by LC-MS/MS analysis; assay type: ADME
[2] = Retention time of the compound by size exclusion chromatography; assay type: physicochemical
Liver microsome [3] = assay: Drug level in human liver microsomes treated with (R)-2,6-Dichloro-N-(2-(3-fluorophenyl)-2-(2-methyl-1Hbenzo[d]imidazol-5-yl)ethyl)-4-(3-methyl-1H-1,2,4-triazol-1-yl)-benzamide after 4 hrs by LC-MS/MS analysis; assay type: ADME
Liver microsome [4] = assay: Drug level in beagle dog liver microsomes treated with (R)-2,6-Dichloro-N-(2-(3-fluorophenyl)-2-(2-methyl-1Hbenzo[d]imidazol-5-yl)ethyl)-4-(3-methyl-1H-1,2,4-triazol-1-yl)-benzamide at 100 uM after 4 hrs by LC-MS/MS analysis; assay type: ADME, Canis lupus familiaris
Liver microsome [5] = assay: Drug metabolism in beagle dog liver microsomes assessed as (R)-2,6-dichloro-N-(2-(3-fluorophenyl)-2-hydroxy-2-(2-methyl-1H-benzo[d]imidazol-5-yl)ethyl)-4-(3-methyl-1H-1,2,4-triazol-1-yl)benzamide formation at 100 uM after 4 hrs by LC-MS/MS analysis; assay type: ADME, Canis lupus familiaris
Liver microsome [6] = assay: Drug metabolism in Sprague-Dawley rat liver microsomes assessed as (R)-2,6-dichloro-N-(2-(3-fluorophenyl)-2-(2-methyl-1H-benzo[d]imidazol-5-yl)ethyl)-4-(3-(hydroxymethyl)-1H-1,2,4-triazol-1-yl)benzamide formation after 4 hrs by LC-MS/MS analysis; assay type: ADME
Liver microsome [7] = assay: Drug metabolism in human liver microsomes assessed as (R)-2,6-dichloro-N-(2-(3-fluorophenyl)-2-(2-methyl-1H-benzo[d]imidazol-5-yl)ethyl)-4-(3-(hydroxymethyl)-1H-1,2,4-triazol-1-yl)benzamide formation after 4 hrs by LC-MS/MS analysis; assay type: ADME
Rattus norvegicus = assay: Dose normalized AUC in Hans-Wistar rat at 2 mg/kg, po; assay type: ADME, organism-based; conditions: in vivo
Liver microsome [8] = assay: Drug metabolism in Sprague-Dawley rat liver microsomes assessed as (R)-2,6-dichloro-N-(2-(3-fluorophenyl)-2-hydroxy-2-(2-methyl-1H-benzo[d]imidazol-5-yl)ethyl)-4-(3-methyl-1H-1,2,4-triazol-1-yl)benzamide formation after 4 hrs by LC-MS/MS analysis; assay type: ADME
Liver microsome [9] = assay: Drug metabolism in human liver microsomes assessed as (R)-2,6-dichloro-N-(2-(3-fluorophenyl)-2-hydroxy-2-(2-methyl-1H-benzo[d]imidazol-5-yl)ethyl)-4-(3-methyl-1H-1,2,4-triazol-1-yl)benzamide formation after 4 hrs by LC-MS/MS analysis; assay type: ADME
Liver microsome [10] = assay: Drug metabolism in beagle dog liver microsomes assessed as (R)-2,6-dichloro-N-(2-(3-fluorophenyl)-2-(2-methyl-1H-benzo[d]imidazol-5-yl)ethyl)-4-(3-(hydroxymethyl)-1H-1,2,4-triazol-1-yl)benzamide formation at 100 uM after 4 hrs by LC-MS/MS analysis; assay type: ADME, Canis lupus familiaris

Coagulation factor IX, sequence (P00740 47-191 limits assumed): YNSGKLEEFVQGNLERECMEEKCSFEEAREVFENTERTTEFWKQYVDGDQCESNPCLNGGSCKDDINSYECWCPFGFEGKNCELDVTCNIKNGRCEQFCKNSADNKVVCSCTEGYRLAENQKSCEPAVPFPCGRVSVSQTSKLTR
Coagulation factor IX, sequence (P00740 227-461 limits assumed): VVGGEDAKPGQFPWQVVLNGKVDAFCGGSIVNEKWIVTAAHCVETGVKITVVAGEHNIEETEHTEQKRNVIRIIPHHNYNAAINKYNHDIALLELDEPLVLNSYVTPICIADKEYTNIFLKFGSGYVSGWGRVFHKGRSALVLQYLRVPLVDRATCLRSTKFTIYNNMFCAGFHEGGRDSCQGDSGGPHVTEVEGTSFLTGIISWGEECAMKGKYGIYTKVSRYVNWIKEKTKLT

Compound | IC50 (Coagulation factor IX) | Drug metabolism (Liver microsome [1]) | Retention_time [2] | Drug metabolism (Liver microsome [3]) | Ki (Coagulation factor IX) | Drug metabolism (Liver microsome [4]) | Drug metabolism (Liver microsome [5]) | Drug metabolism (Liver microsome [6]) | Drug metabolism (Liver microsome [7]) | AUC/dose (Rattus norvegicus) | Drug metabolism (Liver microsome [8]) | Drug metabolism (Liver microsome [9]) | Drug metabolism (Liver microsome [10])
Cc1ncn(-c2cc(Cl)c(C(=O)NC[C@@H](c3cccc(F)c3)c3cc(F)c4[nH]c(C)nc4c3)c(Cl)c2)n1 | – | – | – | – | 10.6 nM | – | – | – | – | – | – | – | –
Cc1ncn(-c2cc(Cl)c(C(=O)NCC(O)(c3cccc(F)c3)c3ccc4[nH]c(C)nc4c3)c(Cl)c2)n1 (single isomer, unassigned) | 63.9 nM | metabolite_detected | 4.24 min | metabolite_detected | – | metabolite_detected | – | – | – | – | – | – | –

The remaining lines, values ahead:

IC50 (Coagulation factor IX) | Drug metabolism (Liver microsome [1]) | Retention_time [2] | Drug metabolism (Liver microsome [3]) | Ki (Coagulation factor IX) | Drug metabolism (Liver microsome [4]) | Drug metabolism (Liver microsome [5]) | Drug metabolism (Liver microsome [6]) | Drug metabolism (Liver microsome [7]) | AUC/dose (Rattus norvegicus) | Drug metabolism (Liver microsome [8]) | Drug metabolism (Liver microsome [9]) | Drug metabolism (Liver microsome [10]) | Compound
1.86 nM | metabolite_detected | 3.59 min | metabolite_detected | – | – | – | – | – | – | – | – | – | Cc1ncn(-c2cc(Cl)c(C(=O)NC[C@@H](c3ccc(O)c(F)c3)c3ccc4[nH]c(C)nc4c3)c(Cl)c2)n1
11 nM | metabolite_detected | 3.84 min | metabolite_detected | – | metabolite_detected | – | – | – | – | – | – | – | Cc1nc2cc([C@@H](CNC(=O)c3c(Cl)cc(-n4cnc(CO)n4)cc3Cl)c3cccc(F)c3)ccc2[nH]1
9.99 nM | – | – | – | – | – | metabolite_detected | metabolite_detected | metabolite_detected | 0.097 µM·h/mg/kg | metabolite_detected | metabolite_detected | metabolite_detected | Cc1ncn(-c2cc(Cl)c(C(=O)NC[C@@H](c3cccc(F)c3)c3ccc4[nH]c(C)nc4c3)c(Cl)c2)n1
